Measured values from PubChem BioAssay AID179 (DTP/NCI, 2004).
Active and inactive are the calls of the source.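 The calls were made as follows: active = compounds giving half or more protection of infected cells from virus-caused growth loss, again on retest; inactive = the rest.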

Tested on: CEM cells HIV-1 protection, formazan growth assay
Assay: NCI AIDS Antiviral Assay
Conditions: for IC50: measured here: growth of uninfected CEM cells
Method in brief: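 Soluble formazan readout of cell growth; CEM cells ± HIV-1; 5 drug concs. ≥50% protection → retest; ≥50% again = moderately active; reproducible 100% = confirmed active.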

| SMILES | EC50 [µM] | IC50 [µM] | outcome |
| --- | --- | --- | --- |
| COc1ccc(NC(=O)Oc2ccc3c(C)cc(=O)oc3c2)c(OC)c1 | > 52.5 | > 52.5 |  |
| COc1ccc(-c2c(C#N)c(=O)nc(SC)n2C2OCC(OC(C)=O)C(OC(C)=O)C2OC(C)=O)cc1 (stereo not given) | > 200 | 35.5 |  |
| O=C1CC(O)(c2ccccc2)C(c2ccccc2)=C1c1ccccc1 (stereo not given) |  |  | inactive |
| O=C(NC1C2CC3CC(C2)CC1C3)c1ccncn1 (stereo not given) | > 513 | > 513 |  |
| [Cl][Sn]([Cl])([c]1ccccc1)[c]1ccccc1 |  |  | inactive |
| CC(=N\N=C\c1ccccn1)/C(C)=N/N=C(C)/C(C)=N/N=C/c1ccccn1 |  |  | inactive |
| O=c1[nH]c2ccccc2nc1/C=C/NC(=S)Nc1ccccc1 | > 200 | > 200 |  |
| O=C(Nc1cccc(Cl)c1)Nc1ccc[nH]c1=O | > 490 | 25.1 |  |
| O=C1OC(c2ccccc2)=N/C1=C\c1ccc(Br)cc1 | > 4.37 | > 4.37 |  |
| C=C(c1ccccc1)[P+](c1ccccc1)(c1ccccc1)c1ccccc1 | > 20 | 0.219 |  |
| NCCCCN(CCCN)Cc1ccccc1 |  |  | inactive |
| c1ccc(C2OC23CCCCC3)cc1 (stereo not given) | > 200 | > 200 |  |
| N#C/C(=C/N1C(=O)/C(=C/c2ccc([N+](=O)[O-])cc2)SC1=S)C(N)=O | > 200 | 16.2 |  |
| Cc1noc(C)c1N=Nc1ccc2nonc2c1N | > 200 | > 200 |  |
| COc1ccc(-c2cc(-c3ccccc3)[nH]c(=O)c2N(C)C)cc1 | > 58.9 | > 58.9 |  |
| O=C(N/N=C/c1cccc2ccccc12)c1cccnc1 | > 200 | 112 |  |
| Cc1c(Cl)ccc2c1NC(=O)C2(O)C1Cc2ccccc2C1=O (stereo not given) | > 28.8 | 12.6 |  |
| CCOC(=O)C(NC(=O)OC(C)(C)C)C(=O)OCC | > 200 | > 200 |  |
| CC(=O)C1=C(O)C2(O)C(=O)c3c(c(C)c4ccc(C)c(O)c4c3O)CC2C(N)C1=O (stereo not given) | > 53.7 | 3.55 |  |
| C1CC[N-]CC1.Oc1ccccc1C=NCCN=Cc1ccccc1O.[Co] | > 200 | 15.5 |  |
| CN(C)C=Nc1ccc2c3c(cccc13)-c1ccccc1-2 | > 200 | 14.1 |  |
| CCc1c(N=[N+]=[N-])c2ccccc2oc1=O |  |  | inactive |

| SMILES | EC50 [µM] | IC50 [µM] | outcome |
| --- | --- | --- | --- |
| CCOC(=O)NC(C(C(=O)OCC)C(=O)OCC)(C(F)(F)F)C(F)(F)F | > 200 | > 200 |  |
| Cn1c(N)c(N=O)c(=O)n(C)c1=O | > 200 | > 200 |  |
| C1CCOC2(CCC3(CC2)OCCCCO3)OC1 |  |  | inactive |
| Cn1c(=O)c2c(nc(N/N=c3/scc(-c4ccccc4)n3Cc3ccccc3)n2C)n(C)c1=O | > 200 | 12.3 |  |
| CCCCCCCCN(/N=C/c1c2c(O)c3c(O)c(C)c4c(c3c1O)C(=O)C(C)(O/C=C/C(OC)C(C)C(OC(C)=O)C(C)C(O)C(C)C(O)C(C)/C=C/C=C(C)C(=O)N2)O4)C1OC(COC(=O)c2ccccc2)C(OC(=O)c2ccccc2)C1OC(=O)c1ccccc1 (stereo not given) | > 200 | 10.5 |  |
| O=c1[nH]nc(-c2ccc3ccccc3c2)[nH]1 | 135 | > 200 |  |
| O=C(NC1C=CCC2C(=O)N(c3ccccc3)C(=O)C12)OCc1ccccc1 (stereo not given) |  |  | inactive |
| N#CI1OC(C(F)(F)F)(C(F)(F)F)c2ccccc21 | > 200 | 9.55 |  |
| CC(=O)NC1C(OCC(=O)NCCNc2ccc([N+](=O)[O-])c3[nH]c4ccccc4c(=O)c23)C(O)C(CO)OC1(C)OCc1ccccc1 (stereo not given) | > 200 | > 200 |  |
| CSc1n[nH]c(N)c1C(=O)Nc1ccc(Cl)cc1 | 0.457 | 1.86 |  |
| CCOC(=O)C(NC(=O)CC)(Nc1cc(C)on1)C(F)(F)F (stereo not given) | > 200 | > 200 |  |
| CC1(C)OC[C@@H](O)[C@H](C#N)CO1 | > 200 | > 200 |  |
| CCOC(=N)CCCSSc1ccc(N=[N+]=[N-])cc1 | > 200 | 25.7 |  |
| COC(=O)N(C[C@@H]1C=CCCC1)c1ccccc1I | > 14.1 | > 14.1 |  |
| CC1=NN(C(=O)c2ccc(Cl)cc2)C(=O)/C1=C/c1ccc(Cl)cc1 | > 10.5 | > 10.5 |  |
| C[N+](C)(C)CC(=O)NC(=O)N/N=C\C(CC#N)CN(Cc1ccccc1)Cc1ccccc1 (stereo not given) | > 74.1 | > 74.1 |  |
| CCC(=N\N=C(N)N)/C(C)=N/N=C(N)N | > 23.4 | > 23.4 |  |
| COc1nc(=O)n(C2CC(F)C(CO)O2)cc1C (stereo not given) | 79.4 | > 200 |  |
| COC(=O)C1=COC(O)C2CCCC12 (stereo not given) | > 1260 | 107 |  |
| Oc1c2cccc1Cc1cccc3c1OCCOCCOCCOCCOc1c(cccc1Cc1cccc(c1O)C3)C2 | > 200 | 50.1 |  |
| CC(C)(C)CC(C)(C)c1cc2c(O)c(c1)Cc1cc(C(C)(C)CC(C)(C)C)cc(c1O)Cc1cc(C(C)(C)CC(C)(C)C)cc(c1O)Cc1cc(C(C)(C)CC(C)(C)C)cc(c1O)Cc1cc(C(C)(C)CC(C)(C)C)cc(c1O)C2 | > 8.71 | > 8.71 |  |
| O=S(=O)(O)c1cc(S(=O)(=O)O)c2c(Nc3ccnc4ccccc34)ccc(S(=O)(=O)O)c2c1 | > 200 | > 200 |  |

| SMILES | EC50 [µM] | IC50 [µM] | outcome |
| --- | --- | --- | --- |
| CCN(CC)CC(C(=O)Nc1c(C)cccc1C)/C(C)=N\NC(=O)c1ccncc1 (stereo not given) | > 33.1 | > 33.1 |  |
| Cc1cccc(N=Nc2ccc(O)c(CN(C)C)c2)c1 | > 200 | 34.7 |  |
| CSc1nc2c(c(N(C)C)n1)C=Nn1c(nc3ccccc31)S2 | 9.77 | 97.7 |  |
| FC1=C2C3CCC(C3)C2C1(F)F (stereo not given) | > 200 | > 200 |  |
| Cc1ccc(-c2cn3c(nc4ccccc43)c(C)n2)cc1 | > 200 | 66.1 |  |
| CC1(Cl)C(=O)NC(=O)N(C2CC(N=[N+]=[N-])C(CO)O2)C1N=[N+]=[N-] (stereo not given) | 3.89 | 282 |  |
| ONC1=Nc2ccccc2OCc2cc(Br)c(Br)cc2COc2ccccc2N=C1NO | > 200 | 10 |  |
| C/C(=N/NC(=S)N1CCCCC1)c1ccccc1O | > 200 | 91.2 |  |
| CCCn1c(=O)c2nn3c(=O)n(CCC)c(=O)c3nn2c1=O | > 200 | > 200 |  |
| COC[C@@H](N=Cc1ccc([N+](=O)[O-])cc1)C(C)C | > 200 | 67.6 |  |
| CCOc1ccc(-n2nc(C(=O)O)cc(Cl)c2=O)cc1 | > 427 | 18.2 |  |
| CCCCCCCCCCCCCCCC(=O)OCC1OC(OC)C(NC(=O)N(CCCl)N=O)C(O)C1O (stereo not given) | > 33.1 | 6.92 |  |
| C=CCc1cccc(/C(O)=C/C(=O)/C=C/c2ccccc2Cl)c1O | > 200 | 35.5 |  |
| CCCCOCC(=O)C1CC[C@@H]2[C@H](CC[C@]3(C)[C@@H](O)CC[C@@H]23)[C@H]1C(=O)O (stereo not given in full) | > 50.1 | > 50.1 |  |
| O=S1(=O)O[C@H]2CCCC[C@@H]2O1 | > 45.7 | > 45.7 |  |
| C(C[P+](c1ccccc1)(c1ccccc1)c1ccccc1)=C(c1ccccc1)c1ccccc1 | > 200 | 1.05 |  |
| COc1cccc(C2=CCCCCC2)c1OC | > 200 | 79.4 |  |
| O=CC[C@H]1C=Cc2ccccc2[C@@]12C=CC(=O)CC2 | > 28.8 | 21.9 |  |
| O=C(NC1CN2CCC1CC2)C(c1ccc(F)cc1)c1ccc(F)cc1 (stereo not given) | > 200 | 5.37 |  |
| N#Cc1nc(COCCOCc2ccc(F)cc2)oc1N | > 200 | > 200 |  |
| CCCCCc1cc(O)cc2c1Oc1cc(O)cc(C(=O)CCCC)c1C(=O)O2 | > 56.2 | 28.2 |  |
| CCOC(=O)CC(=Nc1cc(C)on1)N(CC)CC | > 676 | > 676 |  |

| SMILES | EC50 [µM] | IC50 [µM] | outcome |
| --- | --- | --- | --- |
| CCOC(=O)c1sc2c(c1OC(=O)c1ccccc1)c(=O)n(-c1ccccc1)c(=S)n2-c1ccccc1 | > 200 | 132 |  |
| CC(=O)Nc1cc2cc(NC(=O)C(Cl)(Cl)Cl)ccc2oc1=O | > 81.3 | > 81.3 |  |
| Cc1ccc(S(=O)(=O)Nc2cccc(C)c2C)cc1 |  |  | inactive |
| CCN(CC)CCNC(=O)c1ccc(C)c(OCc2ccccc2)c1[N+](=O)[O-] | > 200 | 33.9 |  |
| O=C(O)CSc1n[nH]c(/C=C/c2ccccc2)n1 | > 955 | > 955 |  |
| CCOC(=O)C(=Cn1ccc(=O)[nH]c1=S)C(=O)OCC | > 200 | > 200 |  |
| CC1(C)O[C@@H]([C@@H](O)[C@H](O)C2SCCCS2)[C@@H](CO)O1 | > 200 | > 200 |  |
| CCOP(=O)(OCC)/C(=C\n1ccc(=O)[nH]c1=S)C(=O)OC | > 200 | > 200 |  |
| COc1cc(C=O)c(-c2cc3c(cc2C2(C)OCCS2)OCO3)c(OC)c1OC (stereo not given) | > 44.7 | 2.51 |  |
| O=C(O)c1cc(N=Nc2ccc(CCc3ccc(N=Nc4cc(C(=O)O)c(O)c5ccccc45)cc3S(=O)(=O)O)c(S(=O)(=O)O)c2)c2ccccc2c1O | > 12.6 | > 12.6 |  |
| Cc1c(C)c2c(c(N)c1C#N)C(=O)N(OS(=O)(=O)c1ccccc1)C2=O | > 151 | 25.7 |  |
| CC1(C)CN=C(Nc2ccc(Cl)cc2)S1 |  |  | inactive |
| S=C(NNc1ccccc1Oc1ccccc1)NNc1ccccc1Oc1ccccc1 | > 100 | > 100 |  |
| Cc1ccc(S(=O)(=O)c2ccccn2)cc1 | 132 | 380 |  |
| NCCCC[C@H](NC(=O)[C@H](CS)NC(=O)[C@@H](N)Cc1cnc[nH]1)C(=O)N[C@H](Cc1ccc(O)cc1)C(=O)N[C@@H](Cc1c[nH]c2ccccc12)C(=O)N[C@@H](Cc1c[nH]c2ccccc12)C(N)=O | > 200 | > 200 |  |
| CC1=C(C(=O)NC2CCCCC2)CC(C(=O)NC2CCCCC2)=C(C)N1 | > 200 | 72.4 |  |
| CC(C)C1=CC2C3C(=O)NC(=O)C3C1C1C3C(=O)NC(=O)C3C21 (stereo not given) | > 794 | > 794 |  |
| COC1CCC(C(C)O)OO1 (stereo not given) | > 200 | 33.9 |  |
| CC(C)C1CNC(=O)C2(CCCO2)CNC(C(C)C)CNC(=O)C2(CCCO2)CN1 (stereo not given) | > 295 | > 295 |  |
| CC(C)=CCNc1ncnc2c1ncn2CCC(=O)OC(C)(C)C | > 200 | 117 |  |
| O=S(=O)(c1ccc(O)cc1)c1ccc(I)cc1 | > 200 | 64.6 |  |
